Measured values: the supplement of paper PMC6045584
± gives the standard deviation of the averaged measurements.

Tests used:
[1] = compound: CCc1cc(Nc2nccc(-c3c(-c4ccc(OC)c(C(=O)Nc5c(F)cccc5F)c4)nc4ccccn34)n2)c(OC)cc1N1CCC(N2CCN(S(C)(=O)=O)CC2)CC1; assay: surviving fraction relative to DMSO-only wells; higher = less growth inhibition; settings: exposure time: 5 days
Procedure, shortened: (§1)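 Log-phase tumour cell lines, 250–500 cells per well in 384-well plates, received inhibitors at 0.5, 1, 5, 10, 50, 100, 500 and 1000 nM continuously for five days, starting 24 hours after seeding. Viability was quantified with CellTiter-Glo luminescence and normalised to the median of DMSO-only wells to give surviving fraction. Three screens were run per line, and a line stayed in only with replicate Pearson r >0.7 and median Z' >0.3.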

[2] = compound: C[C@H](CN(C)C)Oc1nc(Nc2cc3cccc(Cl)c3cn2)cnc1C#N; assay: as above; settings: exposure time: 5 days
Procedure, shortened: as §1

| Test System | surviving fraction ([1]; 0.5 nM) | surviving fraction ([1]; 1 nM) | surviving fraction ([1]; 5 nM) | surviving fraction ([1]; 10 nM) | surviving fraction ([1]; 50 nM) | surviving fraction ([1]; 100 nM) | surviving fraction ([1]; 500 nM) | surviving fraction ([1]; 1000 nM) | surviving fraction ([2]; 0.5 nM) | surviving fraction ([2]; 1 nM) | surviving fraction ([2]; 5 nM) | surviving fraction ([2]; 10 nM) | surviving fraction ([2]; 50 nM) | surviving fraction ([2]; 100 nM) | surviving fraction ([2]; 500 nM) | surviving fraction ([2]; 1000 nM) |
| --- | --- | --- | --- | --- | --- | --- | --- | --- | --- | --- | --- | --- | --- | --- | --- | --- |
| HCC1395 BREAST | 0.903 ± 0.1 | 0.903 ± 0.17 | 0.965 ± 0.24 | 0.916 ± 0.037 | 1.13 ± 0.2 | 0.831 ± 0.19 | 0.855 ± 0.22 | 0.934 ± 0.17 | 0.957 ± 0.076 | 1.14 ± 0.13 | 1.161 ± 0.011 | 1.15 ± 0.14 | 1.27 ± 0.16 | 1.22 ± 0.029 | 0.729 ± 0.1 | 0.671 ± 0.15 |
| HCC1806 BREAST | 1.05 ± 0.032 | 0.985 ± 0.042 | 1.04 ± 0.025 | 1.05 ± 0.1 | 0.993 ± 0.1 | 1.03 ± 0.13 | 0.93 ± 0.13 | 0.904 ± 0.085 | 1.14 ± 0.095 | 1.09 ± 0.062 | 1.25 ± 0.2 | 1.13 ± 0.055 | 0.991 ± 0.068 | 0.633 ± 0.069 | 0.0587 ± 0.008 | 0.0547 ± 0.0029 |
| HCC1954 BREAST | 0.996 ± 0.012 | 0.821 ± 0.02 | 0.904 ± 0.12 | 1.1 ± 0.052 | 0.982 ± 0.06 | 1 ± 0.1 | 0.913 ± 0.11 | 0.638 ± 0.068 | 1.14 ± 0.11 | 1.24 ± 0.018 | 1.32 ± 0.023 | 1.11 ± 0.15 | 1.35 ± 0.051 | 1.04 ± 0.024 | 0.48 ± 0.072 | 0.242 ± 0.02 |
| HCT15 LARGE INTESTINE | 0.963 ± 0.028 | 0.995 ± 0.028 | 0.99 ± 0.027 | 1.03 ± 0.03 | 1 ± 0.02 | 1.05 ± 0.016 | 1.12 ± 0.036 | 1.06 ± 0.017 | 1.05 ± 0.022 | 1.04 ± 0.05 | 1.04 ± 0.022 | 1.05 ± 0.038 | 1.06 ± 0.051 | 1.06 ± 0.069 | 0.998 ± 0.057 | 0.799 ± 0.11 |
| HELA CERVIX | 1.05 ± 0.035 | 1.07 ± 0.04 | 1.08 ± 0.027 | 1.09 ± 0.041 | 1.05 ± 0.05 | 1.07 ± 0.025 | 1.01 ± 0.066 | 0.97 ± 0.026 | 1.01 ± 0.019 | 1.03 ± 0.043 | 0.999 ± 0.058 | 0.988 ± 0.079 | 1.11 ± 0.037 | 1.07 ± 0.048 | 1.09 ± 0.085 | 0.831 ± 0.029 |
| HOS BONE | 1.008 ± 0.004 | 1.028 ± 0.0032 | 1.06 ± 0.018 | 1.05 ± 0.028 | 1.06 ± 0.026 | 1.047 ± 0.0083 | 0.956 ± 0.017 | 0.89 ± 0.014 | 1.01 ± 0.014 | 1.01 ± 0.024 | 0.996 ± 0.018 | 0.9907 ± 0.005 | 1.01 ± 0.035 | 1.002 ± 0.01 | 0.619 ± 0.023 | 0.16 ± 0.017 |
| HOSMNG BONE | 0.956 ± 0.057 | 0.9987 ± 0.0055 | 0.989 ± 0.024 | 1.02 ± 0.086 | 1 ± 0.051 | 1.05 ± 0.087 | 1.05 ± 0.061 | 1.05 ± 0.057 | 0.943 ± 0.14 | 0.937 ± 0.064 | 0.984 ± 0.072 | 0.964 ± 0.047 | 1.02 ± 0.072 | 1.05 ± 0.079 | 0.983 ± 0.096 | 0.0657 ± 0.0067 |
| HSSYII SYNOVIAL | 0.917 ± 0.021 | 0.933 ± 0.033 | 1.01 ± 0.047 | 0.951 ± 0.045 | 0.915 ± 0.043 | 0.958 ± 0.037 | 0.899 ± 0.034 | 0.798 ± 0.021 | 0.9423 ± 0.0023 | 0.918 ± 0.0061 | 0.956 ± 0.042 | 0.94 ± 0.066 | 0.884 ± 0.039 | 0.74 ± 0.015 | 0.139 ± 0.0076 | 0.077 ± 0.0027 |
| HT1080 SOFT TISSUE | 1.05 ± 0.037 | 1.05 ± 0.023 | 1.02 ± 0.0067 | 1.03 ± 0.031 | 1.05 ± 0.024 | 1.02 ± 0.038 | 0.9943 ± 0.0058 | 0.946 ± 0.034 | 1.04 ± 0.044 | 1.03 ± 0.011 | 1.04 ± 0.017 | 1.04 ± 0.023 | 1 ± 0.028 | 0.972 ± 0.041 | 0.707 ± 0.018 | 0.398 ± 0.012 |
| HU09 BONE | 0.897 ± 0.047 | 0.949 ± 0.12 | 1.08 ± 0.16 | 1.06 ± 0.032 | 1.03 ± 0.063 | 1.1 ± 0.048 | 0.88 ± 0.052 | 0.872 ± 0.085 | 1.05 ± 0.11 | 0.964 ± 0.017 | 1.02 ± 0.086 | 1.02 ± 0.092 | 1.07 ± 0.13 | 0.903 ± 0.12 | 0.437 ± 0.063 | 0.261 ± 0.054 |
| HUO3N1 BONE | 0.94 ± 0.044 | 0.986 ± 0.032 | 1 ± 0.028 | 1.05 ± 0.06 | 1.01 ± 0.011 | 0.995 ± 0.052 | 0.947 ± 0.031 | 0.908 ± 0.024 | 1.11 ± 0.059 | 1.05 ± 0.032 | 1.07 ± 0.023 | 1.07 ± 0.072 | 1.13 ± 0.071 | 0.982 ± 0.031 | 0.7257 ± 0.0065 | 0.486 ± 0.025 |
| JIMT1 BREAST | 0.977 ± 0.04 | 1.01 ± 0.014 | 1.01 ± 0.011 | 1.02 ± 0.017 | 0.992 ± 0.032 | 1.04 ± 0.027 | 1 ± 0.031 | 0.986 ± 0.032 | 0.979 ± 0.019 | 0.966 ± 0.042 | 1.03 ± 0.01 | 0.988 ± 0.043 | 0.916 ± 0.053 | 0.467 ± 0.025 | 0.0688 ± 0.0064 | 0.0615 ± 0.0039 |
| JURKAT HAEMATOPOIETIC AND LYMPHOID TISSUE | 1.06 ± 0.011 | 1.07 ± 0.029 | 1.06 ± 0.027 | 1.07 ± 0.021 | 1.05 ± 0.022 | 1.01 ± 0.029 | 0.973 ± 0.034 | 0.886 ± 0.037 | 1.08 ± 0.028 | 1.07 ± 0.013 | 1.05 ± 0.015 | 1.01 ± 0.021 | 0.927 ± 0.038 | 0.948 ± 0.02 | 0.619 ± 0.029 | 0.103 ± 0.014 |
| KPD BONE | 0.907 ± 0.066 | 0.947 ± 0.071 | 1 ± 0.021 | 1.03 ± 0.062 | 0.989 ± 0.021 | 1.049 ± 0.0079 | 0.89 ± 0.081 | 0.849 ± 0.036 | 1.04 ± 0.068 | 0.982 ± 0.083 | 1.03 ± 0.1 | 1.05 ± 0.11 | 1.06 ± 0.054 | 0.979 ± 0.025 | 0.4 ± 0.025 | 0.224 ± 0.028 |
| LM7 BONE | 0.918 ± 0.051 | 0.885 ± 0.043 | 0.997 ± 0.08 | 0.97 ± 0.074 | 1.1 ± 0.11 | 1.01 ± 0.081 | 0.898 ± 0.013 | 0.758 ± 0.03 | 0.96 ± 0.013 | 0.916 ± 0.015 | 0.945 ± 0.068 | 1.02 ± 0.054 | 1.06 ± 0.086 | 0.99 ± 0.099 | 0.835 ± 0.11 | 0.528 ± 0.077 |
| LNCAP PROSTATE | 0.88 ± 0.064 | 0.964 ± 0.16 | 0.996 ± 0.08 | 0.849 ± 0.096 | 0.895 ± 0.15 | 0.93 ± 0.19 | 0.882 ± 0.063 | 0.632 ± 0.1 | 0.913 ± 0.085 | 0.863 ± 0.11 | 0.863 ± 0.015 | 0.92 ± 0.05 | 0.85 ± 0.064 | 0.855 ± 0.041 | 0.549 ± 0.047 | 0.464 ± 0.036 |
| MCF7 BREAST | 0.857 ± 0.036 | 0.905 ± 0.05 | 0.8677 ± 0.0068 | 0.874 ± 0.059 | 0.876 ± 0.013 | 0.897 ± 0.05 | 0.844 ± 0.027 | 0.769 ± 0.027 | 0.896 ± 0.012 | 0.87 ± 0.042 | 0.873 ± 0.069 | 0.881 ± 0.063 | 0.904 ± 0.026 | 0.813 ± 0.046 | 0.751 ± 0.016 | 0.697 ± 0.023 |
| MDAMB134 BREAST | 1.21 ± 0.028 | 1.02 ± 0.034 | 0.988 ± 0.11 | 1.05 ± 0.13 | 1.03 ± 0.27 | 0.906 ± 0.12 | 0.882 ± 0.16 | 0.996 ± 0.18 | 0.726 ± 0.035 | 0.791 ± 0.072 | 0.766 ± 0.071 | 0.663 ± 0.12 | 0.66 ± 0.073 | 0.6525 ± 0.005 | 0.497 ± 0.054 | 0.488 ± 0.02 |
| MDAMB157 BREAST | 0.834 ± 0.049 | 0.96 ± 0.15 | 0.973 ± 0.12 | 0.996 ± 0.052 | 0.934 ± 0.058 | 1.04 ± 0.094 | 0.94 ± 0.06 | 0.982 ± 0.14 | 0.946 ± 0.057 | 0.982 ± 0.033 | 1.01 ± 0.021 | 0.947 ± 0.048 | 1.03 ± 0.051 | 0.902 ± 0.11 | 0.239 ± 0.015 | 0.136 ± 0.029 |
| MDAMB231 BREAST | 0.973 ± 0.025 | 1 ± 0.03 | 1.01 ± 0.033 | 1.03 ± 0.017 | 0.962 ± 0.024 | 1 ± 0.019 | 0.906 ± 0.022 | 0.875 ± 0.018 | 0.9579 ± 0.0095 | 0.9571 ± 0.0043 | 0.93 ± 0.076 | 0.959 ± 0.024 | 0.9788 ± 0.0062 | 0.961 ± 0.02 | 0.743 ± 0.029 | 0.492 ± 0.0092 |
| MDAMB361 BREAST | 0.885 ± 0.088 | 0.947 ± 0.053 | 1.04 ± 0.051 | 0.887 ± 0.052 | 0.879 ± 0.044 | 0.998 ± 0.045 | 0.826 ± 0.041 | 0.726 ± 0.064 | 0.818 ± 0.021 | 0.744 ± 0.048 | 0.752 ± 0.058 | 0.775 ± 0.053 | 0.724 ± 0.03 | 0.547 ± 0.056 | 0.481 ± 0.02 | 0.488 ± 0.04 |
